In US12145947B2, “Pyrimidine based modulators and uses thereof” (Quanta Therapeutics, Inc., priority 2022, dated 2024):

Columns and labels:
[1] = molecular target: T1, GST-tagged KRAS-G12D (2-169) (Homo sapiens, UniProt P01116, G12D); test: Nucleotide exchange assay (NEA), SOS-mediated, HTRF, KRAS G12D; assay type: biochemical; conditions: Table 4, IC50 extracted at 30 min
T1 construct: GST-tagged KRAS-G12D (2-169, Reaction Biology, MSC-11-539); purchased Reaction Biology MSC-11-539 (KRAS G12D); MSC-11-502 (SOS1cat)
Outline: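 GST-KRAS-G12D (2-169, 5 nM final) with Tb-anti-GST donor was preincubated with compound 1 h at RT (pH 7.3 HEPES buffer, MgCl2, DTT), then SOScat (564-1049, 20 nM) and GTP-DY-647P1 (150 nM) were added. HTRF was read at RT; % inhibition vs DMSO/no-SOS blank, 4-parameter IC50 taken at 30 min.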

[2] = test system: GP2D cells (KRAS G12D), phospho-ERK; test: pERK In Cell Western (ICW) assay, GP2D cells; assay type: cell-based; conditions: Table 4, 3 hours
Protocol: pERK ICW is a high throughput screening assay to evaluate the cellular potency of mutant KRAS small molecule inhibitors. KRAS mutant cell lines AGS and GP2D (KRAS^G12D) were purchased from ATCC and maintained respectively in RPMI and DMEM medium supplemented with 10% fetal bovine serum and Penicillin/Streptomycin.
Cells grown in exponential phase were trypsinized, resuspended in fresh media, and viable cells were counted using a cell counter with Trypan Blue (BioRad TC20). Cells were seeded into 384-well plate (Greiner 781091) at density of 5,000 cells/well for AGS and 10,000 cells/well for GP2D and allowed to grow overnight in a 37° C. CO2 incubator. The next day, compounds were dispensed into wells with a ½ log, 10-point serial dilution and top concentration of […] using Tecan D300e dispenser and incubated for 3 hours in a 37° C. CO2 incubator. Cells were then fixed with paraformaldehyde (Electron Microscopy Sciences, 15710, 4% final concentration) for 30 min, permeabilized with wash buffer (1×PBS+0.1% Triton X-100) for 30 min and blocked with Odyssey blocking buffer (Li—COR 927-70001) for 1 hour, all at room temperature (RT). Phospho-ERK antibody (CST 4370L) was diluted 1:500 in Odyssey blocking+0.2% Tween 20 and incubated with cells overnight at 4° C. The next day, plates were washed 5× with wash buffer, incubated with IRDye 800 CW, Goat anti-Rabbit secondary antibody (Li—COR 926-32211, 1:500) and DRAQ5 (CST 4084L, 1:5,000) diluted in Odyssey blocking+0.2% Tween 20 for 1 hour, washed 5×, and imaged on an Odyssey CLx imaging system.
For data analysis, signal intensities from 800 (phosphor-ERK) and 700 (DRAQ5) channels were extracted, and phospho-ERK signals were normalized to DRAQ5 signals for each well and percent of DMSO control values were computed. Data were then imported into Graphpad Prism to compute half-maximal inhibitory concentrations (IC50) using a 4-parameter variable slope model. Z-factor for each plate was computed from signals derived from wells treated with either DMSO or […] of Trametinib. AGS pERK ICW (Method B) IC50 (uM) values of selected compounds are depicted in Table 2 with compounds having a value 0.001 uM to 0.01 uM as ++++; >0.01 uM to 0.1 uM as +++; >0.1 uM to 1 uM as ++; 1 uM to 10 uM as + and >10 uM as NA.

T1 sequence (P01116 2-169 isoform P01116-2 G12D): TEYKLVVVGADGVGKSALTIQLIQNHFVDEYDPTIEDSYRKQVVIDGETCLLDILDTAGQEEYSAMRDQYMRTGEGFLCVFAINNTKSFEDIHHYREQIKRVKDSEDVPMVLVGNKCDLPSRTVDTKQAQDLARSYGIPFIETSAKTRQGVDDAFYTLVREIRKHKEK

Row | SMILES | IC50 [1] | IC50 [2] | IC50 ([1]; listed as 74.2) | IC50 ([2]; listed as 74.2)
1 | CN(C)CC1(COc2nc(N3C[C@H]4CC[C@@H](C3)N4)c(C#N)c(N3CC4(CCc5sc(N)c(C#N)c54)C3)n2)CC1(F)F (mixture of isomers) [Compound 74, 2-amino-1′-[5-cyano-6-(3,8-diazabicyclo[3.2.1]octan-3-yl)-2-[[1-[(dimethylamino)methyl]-2,2-difluoro-cyclopropyl]methoxy]pyrimidin-4-yl]spiro[5,6-dihydrocyclopenta[b]thiophene-4,3′-azetidine]-3-carbonitrile] | 0.01 to 0.1 µM | 1 to 10 µM | – | –
2 | C[C@@]1(O)CCCN(c2nc(OC[C@@]34CCCN3C[C@H](F)C4)nc(N3CC4(CCc5sc(N)c(C#N)c54)C3)c2C#N)C1 [Compound 27, 2-amino-1′-[5-cyano-2-[[(2R,8S)-2-fluoro-1,2,3,5,6,7-hexahydropyrrolizin-8-yl]methoxy]-6-[(3R)-3-hydroxy-3-methyl-1-piperidyl]pyrimidin-4-yl]spiro[5,6-dihydrocyclopenta[b]thiophene-4,3′-azetidine]-3-carbonitrile] | 0.01 to 0.1 µM | 0.1 to 1 µM | – | –
3 | N#Cc1c(N2CCCC(O)CC2)nc(OC[C@@]23CCCN2C[C@H](F)C3)nc1N1CC2(CCc3sc(N)c(C#N)c32)C1 (stereo partly drawn) [Compound 40, 2-amino-1′-[5-cyano-6-(4-hydroxyazepan-1-yl)-2-[[(2R,8S)-2-fluoro-1,2,3,5,6,7-hexahydropyrrolizin-8-yl]methoxy]pyrimidin-4-yl]spiro[5,6-dihydrocyclopenta[b]thiophene-4,3′-azetidine]-3-carbonitrile] | 0.01 to 0.1 µM | 0.1 to 1 µM | – | –
4 | N#Cc1c(N2CC3COCC(C2)N3)nc(OC[C@]23CCCN2C[C@@H](F)C3)nc1N1CC2(CCc3sc(N)c(C#N)c32)C1 [Compound 43, 2-amino-1′-[5-cyano-2-[[(2S,8R)-2-fluoro-1,2,3,5,6,7-hexahydropyrrolizin-8-yl]methoxy]-6-(3-oxa-7,9-diazabicyclo[3.3.1]nonan-7-yl)pyrimidin-4-yl]spiro[5,6-dihydrocyclopenta[b]thiophene-4,3′-azetidine]-3-carbonitrile] | 0.01 to 0.1 µM | 0.1 to 1 µM | – | –
5 | N#Cc1c(N2CCCC(=O)CC2)nc(OC[C@@]23CCCN2C[C@H](F)C3)nc1N1CC2(CCc3sc(N)c(C#N)c32)C1 [Compound 49, 2-amino-1′-[5-cyano-2-[[(2R,8S)-2-fluoro-1,2,3,5,6,7-hexahydropyrrolizin-8-yl]methoxy]-6-(4-oxoazepan-1-yl)pyrimidin-4-yl]spiro[5,6-dihydrocyclopenta[b]thiophene-4,3′-azetidine]-3-carbonitrile] | 0.01 to 0.1 µM | 0.1 to 1 µM | – | –
6 | N#Cc1c(N2C[C@H]3CC[C@@H](C2)N3)nc(OCC2(CN3CC[S+]([O-])CC3)CC2)nc1N1CC2(CCc3sc(N)c(C#N)c32)C1 [Compound 71, 2-amino-1′-[5-cyano-6-[(1R,5S)-3,8-diazabicyclo[3.2.1]octan-3-yl]-2-[[1-[(1-oxo-1,4-thiazinan-4-yl)methyl]cyclopropyl]methoxy]pyrimidin-4-yl]spiro[5,6-dihydrocyclopenta[b]thiophene-4,3′-azetidine]-3-carbonitrile] | < 0.01 µM | 0.1 to 1 µM | – | –
7 | N#Cc1c(N2C[C@H]3CC[C@@H](C2)N3)nc(OCC2(CN3CCOCC3)CC2)nc1N1CC2(CSc3sc(N)c(C#N)c32)C1 [Compound 73, 5-amino-1′-[5-cyano-2-[[1-(morpholinomethyl)cyclopropyl]methoxy]-6-[(1R,5S)-3,8-diazabicyclo[3.2.1]octan-3-yl]pyrimidin-4-yl]spiro[2H-thieno[2,3-b]thiophene-3,3′-azetidine]-4-carbonitrile] | < 0.01 µM | 0.001 to 0.01 µM | – | –
8 | CN(C)CC1(COc2nc(N3CC4CCC(C3)N4)c(C#N)c(N3CC4(CCc5sc(N)c(C#N)c54)C3)n2)CC1(F)F (stereo not drawn) [Compound 74B, 2-amino-1′-[5-cyano-6-(3,8-diazabicyclo[3.2.1]octan-3-yl)-2-[[(1*)-1-[(dimethylamino)methyl]-2,2-difluoro-cyclopropyl]methoxy]pyrimidin-4-yl]spiro[5,6-dihydrocyclopenta[b]thiophene-4,3′-azetidine]-3-carbonitrile] | – | – | 0.01 to 0.1 µM | 1 to 10 µM
9 | N#Cc1c(N2CCCn3nc(-c4ccccn4)c(Cl)c3C2)nc(OCC2(CN3CCOCC3)CC2)nc1N1CC2(CCc3sc(N)c(C#N)c32)C1 [Compound 75, 2-amino-1′-[6-[3-chloro-2-(2-pyridyl)-4,6,7,8-tetrahydropyrazolo[1,5-a][1,4]diazepin-5-yl]-5-cyano-2-[[1-(morpholinomethyl)cyclopropyl]methoxy]pyrimidin-4-yl]spiro[5,6-dihydrocyclopenta[b]thiophene-4,3′-azetidine]-3-carbonitrile] | < 0.01 µM | 0.01 to 0.1 µM | – | –
10 | N#Cc1c(N2C[C@H]3CC[C@@H](C2)N3)nc(OCc2ccccc2)nc1N1CC2(CCc3sc(N)c(C#N)c32)C1 [Compound 76, 2-amino-1′-[2-benzyloxy-5-cyano-6-[(1R,5S)-3,8-diazabicyclo[3.2.1]octan-3-yl]pyrimidin-4-yl]spiro[5,6-dihydrocyclopenta[b]thiophene-4,3′-azetidine]-3-carbonitrile] | < 0.01 µM | 0.01 to 0.1 µM | – | –
11 | N#Cc1c(N2C[C@H]3CC[C@@H](C2)N3)nc(OC[C@@H]2CCN2CC(F)(F)F)nc1N1CC2(CCc3sc(N)c(C#N)c32)C1 [Compound 92, 2-amino-1′-[5-cyano-6-[(1R,5S)-3,8-diazabicyclo[3.2.1]octan-3-yl]-2-[[(2S)-1-(2,2,2-trifluoroethyl)azetidin-2-yl]methoxy]pyrimidin-4-yl]spiro[5,6-dihydrocyclopenta[b]thiophene-4,3′-azetidine]-3-carbonitrile] | 0.01 to 0.1 µM | 1 to 10 µM | – | –
12 | C=C1CN2CCCC2(COc2nc(N3CCCn4nc(C(=O)N(C)C)c(Cl)c4C3)c(C#N)c(N3CC4(CCc5sc(N)c(C#N)c54)C3)n2)C1 (stereo not drawn) [Compound 93, 5-[6-(2-amino-3-cyano-spiro[5,6-dihydrocyclopenta[b]thiophene-4,3′-azetidine]-1′-yl)-5-cyano-2-[(6-methylene-2,3,5,7-tetrahydro-1H-pyrrolizin-8-yl)methoxy]pyrimidin-4-yl]-3-chloro-N,N-dimethyl-4,6,7,8-tetrahydropyrazolo[1,5-a][1,4]diazepine-2-carboxamide] | < 0.01 µM | 0.001 to 0.01 µM | – | –
13 | C=C1CN2CCCC2(COc2nc(N3C[C@H]4CC[C@@H](C3)N4)c(C#N)c(N3CC4(CCc5sc(N)c(C#N)c54)C3)n2)C1 (stereo partly drawn) [Compound 94, 2-amino-1′-[5-cyano-2-[(6-methylene-2,3,5,7-tetrahydro-1H-pyrrolizin-8-yl)methoxy]-6-[(1R,5S)-3,8-diazabicyclo[3.2.1]octan-3-yl]pyrimidin-4-yl]spiro[5,6-dihydrocyclopenta[b]thiophene-4,3′-azetidine]-3-carbonitrile] | < 0.01 µM | 0.001 to 0.01 µM | – | –
14 | CN(C)CC1(COc2nc(N3CCCn4nc(C(=O)N(C)C)c(Cl)c4C3)c(C#N)c(N3CC4(CCCc5sc(N)c(C#N)c54)C3)n2)CC1(F)F (stereo not drawn) [Compound 96, 5-[6-(2-amino-3-cyano-spiro[6,7-dihydro-5H-benzothiophene-4,3′-azetidine]-1′-yl)-5-cyano-2-[[1-[(dimethylamino)methyl]-2,2-difluoro-cyclopropyl]methoxy]pyrimidin-4-yl]-3-chloro-N,N-dimethyl-4,6,7,8-tetrahydropyrazolo[1,5-a][1,4]diazepine-2-carboxamide] | < 0.01 µM | 0.01 to 0.1 µM | – | –
15 | Cn1nccc1COc1nc(N2C[C@H]3CC[C@@H](C2)N3)c(C#N)c(N2CC3(CCc4sc(N)c(C#N)c43)C2)n1 [Compound 97, 2-amino-1′-[5-cyano-2-[(2-methylpyrazol-3-yl)methoxy]-6-[(1R,5S)-3,8-diazabicyclo[3.2.1]octan-3-yl]pyrimidin-4-yl]spiro[5,6-dihydrocyclopenta[b]thiophene-4,3′-azetidine]-3-carbonitrile] | < 0.01 µM | 0.1 to 1 µM | – | –
